Results taken from patent US6951639B2, “1,4,7,10-tetraazacyclododecane butyltriols, processes for their production and pharmaceutical agents containing them” (Schering AG, priority 1990, dated 2005).

Assays:
mice = test: Acute toxicity determination (LD50), intravenous administration in a caudal vein; format: in vivo; conditions: mice 18-22 g, 2 ml/min, 7 days observation, death as criterion
Method: 1. Acute Toxicity Determination (LD50)
In an individual cage (Rhema/Hofheim company) the contrast medium was administered to mice (weight: 18-22 g) approximately at body temperature in a caudal vein at a rate of 2 ml/min. […]
The contrast media were administered to 3 mice each in 3 doses at variable volumes and constant concentration. The allocation of the animals to the individual doses and the injection sequence of the doses took place by chance.
The observation period of the animals extended over 7 days per injection. The death of the animals was used as the criterion of the effectiveness.
(§1) The statistical evaluation of all study results took place with the probit analysis.

rats = test: Intracisternal administration (ED50), neural compatibility; format: in vivo, rats (Wistar-Han-Schering, SPF); conditions: once intracisternally, 0.08 ml/animal, posture anomalies, spasms and death as criteria
Method: 2. Intracisternal Administration (ED50)
The test substance was administered under light ether anesthesia to an equal number of female and male rats (130-170 g, Wistar-Han-Schering, SPF) once intracisternally by suboccipital puncture in constant volumes (0.08 ml/animal) in different concentrations (3 doses per 10 animals per substance). A volume sampling check (Ringer's solution) followed the study. Posture anomalies, spasms and death of the animals were evaluated as action criteria.
as §1

[1] = tested on: cerebral infarction in the rat; test: NMR-diagnostic in vivo examination: demonstration of a cerebral infarction in the rat; parameters: species or system Wistar rat; conditions: image 1 minute after administration
Method: The experimental animal was a female Wistar rat weighing 200 g. For the induction of the cerebral infarction, the animal was first anesthetized. After intravenous injection of Bengal red with a dose of 20 mg/kg, an area of the brain about 0.7 cm in diameter near the bregma point was irradiated through the cranium with light of wavelength 548 nm (this corresponds to the maximum absorption of Bengal red), by which, because of the formation of singlet oxygen by a chain of various reactions, there results the aggregation of platelets and thus an infarction in the irradiated region.
The imaging took place in an MRI experimental device of the General Electric company (field strength, 2 teslas). It was performed with a spin echo sequence (TR=400 msec, Ts=20 msec). The layer thickness was 3 mm, and 4 averagings were performed respectively.
An axial sectional plane image without contrast medium where the cranium points downward was taken. The infraction area is indicated only quite weakly by a lower signal intensity in comparison to the healthy tissue. […] The same animal was administered another dose after about 20 minutes, this time in the amount of 0.3 mmol of Gd/kg.

[2] = reference value for monomer contrast media; cited from earlier work

| Compound | Acute i.v. LD50 (mice) [mmol/kg] | Neural ED50 (rats) [µmol/kg] | signal enhancement in the area of infarction (MRI) ([1]; 0.1 mmol of Gd/kg, 2 teslas, spin echo) | signal enhancement in the area of infarction (MRI) ([1]; further dose of 0.3 mmol of Gd/kg after about 20 minutes) | intravenous compatibility [2] [mmol/kg] |
| --- | --- | --- | --- | --- | --- |
| O=C([O-])CN1CCN(CC(=O)[O-])CCN(CC(O)C(O)CO)CCN(CC(=O)[O-])CC1.[Gd+3] (stereo not shown) [Example 1, Gadolinium Complex of 10-(2,3,4-trihydroxybutyl)-1,4,7-triscarboxymethyl-1,4,7,10-tetraazacyclododecane] | 35 | 27 | – | – | – |
| O=C([O-])CN1CCN(CC(=O)[O-])CCN(C(CO)C(O)CO)CCN(CC(=O)[O-])CC1.[Gd+3] (stereo not shown) [Example 2, Gadolinium Complex of 10-(1-hydroxymethyl-2,3-dihydroxypropyl)-1,4,7-triscarboxymethyl-1,4,7,10-tetraazacyclododecane] | 30 | 29 | clear enhancement | enhancement substantially stronger than after the smaller dose | – |
| OC[C@@H](O)[C@@H](O)[C@H](O)[C@H](O)CO [mannitol] | – | – | – | – | 30 to 40 |
